The source of these data is PubChem BioAssay (NCI).

“And” between values parts separate entries of the source, which are not always exact repeats. Equal entries are not always repeated.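 Each compound was tested at five concentrations against cells in 96-well plates for 48 hours. GI50 = concentration required for 50% inhibition of growth. Definition used: TGI = concentration required for complete inhibition of growth.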

Test systems include MDA-MB-435; NCI-H226 lung; OVCAR-8 ovarian; NCI-H460 lung; SN12C renal; MDA-MB-231 breast; PC-3 prostate; KM12 colon; HCT-15 colon; NCI-H522 lung.
Common to all, as to assay: NCI anticancer screen, dose series, 48 h

Regarding `O=C(NNS(=O)(=O)c1ccc(F)cc1)c1cccnc1Nc1ccc(Cl)cc1Cl`, the GI50 in the test with MDA-MB-435 was 84.4 µM; in the test on NCI-H226 lung it was 29.6 µM; in the test on OVCAR-8 ovarian, 26.9 µM; with NCI-H460 lung, 31.4 µM; in the test with SN12C renal, 17.6 µM; in the test on MDA-MB-231 breast, 28.8 µM. For the same compound, the GI50 with PC-3 prostate is 14.8 µM; in the test with KM12 colon, 23 µM; with HCT-15 colon, 26.8 µM. The TGI with MDA-MB-435 is more than 100 µM; in the test on NCI-H226 lung, 96.9 µM; in the test on OVCAR-8 ovarian it was more than 100 µM; in the test on NCI-H460 lung, more than 100 µM; in the test on SN12C renal it was 31.7 µM; in the test with MDA-MB-231 breast it was more than 100 µM. For the same compound, the results for the TGI in the test with PC-3 prostate, in the test on KM12 colon and with HCT-15 colon were 32.1 µM, 48.5 µM and 83.5 µM, respectively.

Regarding `Cc1ccc(C2C3=C(N=c4s/c(=C/c5ccc(Br)cc5)c(=O)n42)c2ccc4ccccc4c2OCC3)cc1` (stereo not drawn), the GI50 in the test with MDA-MB-435, in the test on NCI-H522 lung, in the test with OVCAR-8 ovarian, in the test on NCI-H460 lung, in the test with MDA-MB-231 breast and in the test on PC-3 prostate was more than 100 µM each time. Besides, the results for the GI50 in the test on KM12 colon and with HCT-15 colon were more than 100 µM and 2.89 µM, respectively. In addition, the TGI in the test with MDA-MB-435, in the test on NCI-H522 lung, in the test on OVCAR-8 ovarian, in the test with NCI-H460 lung, with MDA-MB-231 breast and with PC-3 prostate was more than 100 µM in each case. Besides, the TGI in the test with KM12 colon and with HCT-15 colon was more than 100 µM each time.

As for `C=CCC(N[C@H](CO)c1ccccc1)c1cn(S(=O)(=O)c2ccc(C)cc2)c2ccccc12` (stereo partly drawn), the GI50 is 19 µM in the test with MDA-MB-435; 18.6 µM with NCI-H522 lung; 10.8 µM with OVCAR-8 ovarian; more than 100 µM in the test on NCI-H460 lung; 16.9 µM in the test on SN12C renal; 10.7 µM in the test on MDA-MB-231 breast. In addition, the GI50 in the test with PC-3 prostate was 17.8 µM; in the test on KM12 colon it was 19.8 µM; in the test on HCT-15 colon, 23.7 µM. Also, the TGI with MDA-MB-435 was 46.8 µM; in the test with NCI-H522 lung, 47.7 µM; in the test on OVCAR-8 ovarian it was 29.5 µM; in the test on NCI-H460 lung it was more than 100 µM; with SN12C renal it was 32.2 µM; with MDA-MB-231 breast it was 32.3 µM. Further, the values for the TGI with PC-3 prostate, in the test with KM12 colon and with HCT-15 colon were 77.1 µM, 68.4 µM and 60.2 µM, respectively.

`CC(O)C(O)C(O)C(/C=N\Nc1ccccc1)=N/Nc1ccccc1` (stereo not drawn): the TGI is 26.7 µM in the test on MDA-MB-435; 20.9 µM in the test on NCI-H522 lung; 38.1 µM in the test on OVCAR-8 ovarian; 24.6 µM in the test on NCI-H460 lung; 34.5 µM in the test on SN12C renal; 27.3 µM in the test on MDA-MB-231 breast. Further, the TGI in the test on PC-3 prostate amounted to 49.6 µM; in the test with KM12 colon, 21.6 µM; in the test on HCT-15 colon, 27 µM.

In the case of `Cc1nc2cc(Nc3nc(Nc4ccc(F)cc4)nc(N4CCN(C)CC4)n3)ccc2n1Cc1ccccc1`, the GI50 in the test with MDA-MB-435 is 1.87 µM; in the test on NCI-H522 lung it was 1.6 µM; with OVCAR-8 ovarian, 2.02 µM; with NCI-H460 lung, 1.9 µM; with SN12C renal, 1.67 µM; with MDA-MB-231 breast it was 1.69 µM. Also, the GI50 in the test with PC-3 prostate is 2.04 µM; with KM12 colon, 1.73 µM; in the test with HCT-15 colon it was 1.55 µM. Besides, the TGI came out at 3.56 µM in the test on MDA-MB-435; 3.21 µM with NCI-H522 lung; 5.49 µM in the test on OVCAR-8 ovarian; 3.83 µM with NCI-H460 lung; 3.34 µM in the test on SN12C renal; 3.36 µM with MDA-MB-231 breast. For the same compound, the TGI was found to be 5.4 µM in the test on PC-3 prostate, 3.25 µM in the test with KM12 colon and 3.48 µM in the test on HCT-15 colon.

With `O=C1c2ccn(CCCCN3CCCCC3)c2C(=O)c2c1c(O)c1ccccc1c2O`, the GI50 is 2.19 µM in the test with MDA-MB-435; 30 µM in the test on NCI-H226 lung; 11.1 µM in the test on NCI-H522 lung; 3.52 µM with OVCAR-8 ovarian; 3.88 µM in the test on NCI-H460 lung; 16.5 µM with SN12C renal. Further, the GI50 with PC-3 prostate is 4.76 µM; with KM12 colon it was 8.55 µM; in the test on HCT-15 colon, 2.74 µM. The TGI in the test on MDA-MB-435 is 5.27 µM; with NCI-H226 lung, more than 73.7 µM; in the test on NCI-H522 lung, 56 µM; with OVCAR-8 ovarian it was more than 100 µM; in the test on NCI-H460 lung, 16.3 µM; in the test on SN12C renal it was 45 µM. In addition, the TGI in the test with PC-3 prostate came out at 18.1 µM; with KM12 colon, 27.5 µM; with HCT-15 colon, 7.98 µM.

For `CC(=O)/C=C/C1=C(c2cccs2)c2ccccc2CC1`, the GI50 in the test on MDA-MB-435 is 25.8 µM; in the test on NCI-H226 lung, 28.7 µM; with NCI-H522 lung, 25.1 µM; in the test on OVCAR-8 ovarian, 38.9 µM; with SN12C renal, 23.5 µM; in the test on MDA-MB-231 breast it was 23.3 µM. The GI50 in the test with PC-3 prostate was 40.7 µM; in the test with KM12 colon it was 25.2 µM; in the test with HCT-15 colon, 21.8 µM. Further, the TGI was 51.3 µM in the test with MDA-MB-435; 93.5 µM with NCI-H226 lung; 66.8 µM with NCI-H522 lung; more than 100 µM in the test on OVCAR-8 ovarian; 48.5 µM in the test on SN12C renal; 59.1 µM in the test with MDA-MB-231 breast. The figures for the TGI in the test on PC-3 prostate, in the test on KM12 colon and with HCT-15 colon were more than 100 µM, 56.2 µM and 52.7 µM, respectively.

For the compound `Cc1cc(C)cc(Nc2ccc([N+](=O)[O-])c(NCCN3CCOCC3)n2)c1`, the TGI with MDA-MB-435 is 0.0115 µM; in the test on NCI-H226 lung, more than 100 µM; with OVCAR-8 ovarian it was more than 100 µM; in the test with NCI-H460 lung it was more than 100 µM; in the test with SN12C renal, more than 100 µM; with PC-3 prostate, more than 100 µM. Besides, the TGI with KM12 colon and in the test with HCT-15 colon was more than 100 µM each time. Moreover, the GI50 in the test with NCI-H226 lung was 0.0365 µM and 0.0614 µM; with NCI-H522 lung, 0.000235 µM; in the test on OVCAR-8 ovarian, 0.006 µM and 0.0368 µM; with SN12C renal, 0.0706 µM; with PC-3 prostate, 0.00177 µM and 0.0106 µM; in the test on KM12 colon it was 0.000947 µM. Besides, the GI50 in the test with HCT-15 colon was 0.000928 µM.

Turning to `OCC#Cc1ccccc1C#Cc1ccc(C#Cc2ccccc2C#CCO)s1`, the GI50 with MDA-MB-435 is 15.1 µM; with NCI-H522 lung, 11.7 µM; in the test on OVCAR-8 ovarian it was 21.2 µM; in the test with NCI-H460 lung, 24.7 µM; in the test with SN12C renal it was 20.1 µM; in the test with MDA-MB-231 breast, 18.9 µM. Also, the GI50 is 14.8 µM in the test with PC-3 prostate, 15.1 µM in the test on KM12 colon and 25.3 µM in the test with HCT-15 colon. Moreover, the TGI with MDA-MB-435 amounted to 29.2 µM; with NCI-H522 lung, 29.2 µM; with OVCAR-8 ovarian it was 45.6 µM; with NCI-H460 lung it was 91.5 µM; with SN12C renal, 43 µM; in the test with MDA-MB-231 breast it was 53.5 µM. Besides, the TGI in the test on PC-3 prostate was 28.7 µM; in the test with KM12 colon, 30.6 µM; in the test on HCT-15 colon, 91.1 µM.
